Assay results taken from US8633315B2, “Substituted hydroxyethyl amine compounds as beta-secretase modulators and methods of use” (Amgen Inc., priority 2007, dated 2014).

Assays:
[1] = system: Cells stably expressing Amyloid Precursor Protein (APP); experiment: In vitro BACE cell-based assay (HEK cell assay): Aβ40 in conditioned medium by sandwich ELISA; conditions: Homo sapiens, HEK293, 24 h, Aβ40 in conditioned medium after 24 h incubation
Summary of the method: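 APP-stably-expressing cells were grown 24 h in DMEM/10% FBS, then treated for 24 h with 10-point doses starting at 100 μM or 10 μM, at 0.1% DMSO final. Aβ40 in conditioned medium was measured by sandwich ELISA (pAb40 capture, biotinylated 6E10 detection, europium time-resolved fluorescence); IC50 from percent inhibition.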

BACE1 = BACE1 (Homo sapiens, UniProt P56817); experiment: In vitro enzymatic BACE FRET (fluorescence resonance energy transfer) assay; format: biochemical
BACE1, sequence (P56817 46-501, species assumed): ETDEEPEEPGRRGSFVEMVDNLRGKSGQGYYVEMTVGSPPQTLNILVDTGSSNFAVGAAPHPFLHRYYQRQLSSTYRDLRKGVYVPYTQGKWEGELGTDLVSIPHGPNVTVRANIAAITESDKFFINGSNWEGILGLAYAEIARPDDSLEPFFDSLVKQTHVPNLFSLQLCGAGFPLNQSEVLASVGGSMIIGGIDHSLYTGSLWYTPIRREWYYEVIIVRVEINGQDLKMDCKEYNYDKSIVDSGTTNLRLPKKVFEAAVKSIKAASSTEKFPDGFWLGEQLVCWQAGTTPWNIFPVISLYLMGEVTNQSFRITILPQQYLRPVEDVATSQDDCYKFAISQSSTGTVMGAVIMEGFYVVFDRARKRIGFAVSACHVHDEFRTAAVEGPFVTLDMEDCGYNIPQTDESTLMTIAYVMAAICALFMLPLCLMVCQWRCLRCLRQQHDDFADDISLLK
Summary of the method: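 Cleavage of a quenched peptide FRET substrate (50 nM) in 0.05 M acetate pH 4.2, 10% DMSO, 100 uM genapol, 1 h incubation. Reaction stopped by Tris neutralization; fluorescence read at excitation 488 nm / […].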

IC50 [1] | IC50 (BACE1) | SMILES
201 nM | 61 nM | C=CC[C@H](NC(=O)c1cncs1)[C@H](O)CN[C@H]1CC2(CCC2)Oc2ncc(CC(C)(C)C)cc21 [Example 97, N-((1S)-1-((1R)-2-(((4′S)-6′-(2,2-dimethylpropyl)-3′,4′-dihydrospiro[cyclobutane-1,2′-pyrano[2,3-b]pyridin]-4′-yl)amino)-1-hydroxyethyl)-3-buten-1-yl)-1,3-thiazole-5-carboxamide]
709 nM | 271 nM | C=CC[C@H](NC(=O)c1cncnc1)[C@H](O)CN[C@H]1CC2(CCC2)Oc2ncc(CC(C)(C)C)cc21 [Example 68, N-((1S)-1-((1R)-2-(((4′S)-6′-(2,2-dimethylpropyl)-3′,4′-dihydrospiro[cyclobutane-1,2′-pyrano[2,3-b]pyridin]-4′-yl)amino)-1-hydroxyethyl)-3-buten-1-yl)-5-pyrimidinecarboxamide]
707 nM | 75 nM | C=CC[C@H](NC(=O)c1ccc2c(c1)OCO2)[C@H](O)CN[C@H]1CC2(CCC2)Oc2ncc(CC(C)(C)C)cc21 [Example 102, N-((1S)-1-((1R)-2-(((4′S)-6′-(2,2-dimethylpropyl)-3′,4′-dihydrospiro[cyclobutane-1,2′-pyrano[2,3-b]pyridin]-4′-yl)amino)-1-hydroxyethyl)-3-buten-1-yl)-1,3-benzodioxole-5-carboxamide]
3000 nM | 641 nM | C=CC[C@H](NC(=O)c1c(F)cc(F)cc1F)[C@H](O)CN[C@H]1CC2(CCC2)Oc2ncc(CC(C)(C)C)cc21 [Example 78, N-((1S)-1-((1R)-2-(((4′S)-6′-(2,2-dimethylpropyl)-3′,4′-dihydrospiro[cyclobutane-1,2′-pyrano[2,3-b]pyridin]-4′-yl)amino)-1-hydroxyethyl)-3-buten-1-yl)-2,4,6-trifluorobenzamide]
664 nM | 130 nM | C=CC[C@H](NC(=O)c1cscn1)[C@H](O)CN[C@H]1CC2(CCC2)Oc2ncc(CC(C)(C)C)cc21 [Example 134, N-((1S)-1-((1R)-2-(((4′S)-6′-(2,2-dimethylpropyl)-3′,4′-dihydrospiro[cyclobutane-1,2′-pyrano[2,3-b]pyridin]-4′-yl)amino)-1-hydroxyethyl)-3-buten-1-yl)-1,3-thiazole-4-carboxamide]
342 nM | 37 nM | C=CC[C@H](NC(=O)C(C)(F)F)[C@H](O)CN[C@H]1CC2(CCC2)Oc2ncc(CC(C)(C)C)cc21 [Example 136, N-((1S)-1-((1R)-2-(((4′S)-6′-(2,2-dimethylpropyl)-3′,4′-dihydrospiro[cyclobutane-1,2′-pyrano[2,3-b]pyridin]-4′-yl)amino)-1-hydroxyethyl)-3-buten-1-yl)-2,2-difluoropropanamide]
366 nM | 253 nM | C=CC[C@H](NC(=O)c1c(F)ccc(F)c1F)[C@H](O)CN[C@H]1CC2(CCC2)Oc2ncc(CC(C)(C)C)cc21 [Example 75, N-((1S)-1-((1R)-2-(((4′S)-6′-(2,2-dimethylpropyl)-3′,4′-dihydrospiro[cyclobutane-1,2′-pyrano[2,3-b]pyridin]-4′-yl)amino)-1-hydroxyethyl)-3-buten-1-yl)-2,3,6-trifluorobenzamide]
71 nM | 179 nM | C=CC[C@H](NC(=O)c1ccc(F)nc1)[C@H](O)CN[C@H]1CC2(CCC2)Oc2ncc(CC(C)(C)C)cc21 [Example 66, N-((1S)-1-((1R)-2-(((4′S)-6′-(2,2-dimethylpropyl)-3′,4′-dihydrospiro[cyclobutane-1,2′-pyrano[2,3-b]pyridin]-4′-yl)amino)-1-hydroxyethyl)-3-buten-1-yl)-6-fluoro-3-pyridinecarboxamide]
2580 nM | 371 nM | C=CC[C@H](NC(=O)c1cccc(F)c1)[C@H](O)CN[C@H]1CC2(CCC2)Oc2ncc(CC(C)(C)C)cc21 [Example 64, N-((1S)-1-((1R)-2-(((4′S)-6′-(2,2-dimethylpropyl)-3′,4′-dihydrospiro[cyclobutane-1,2′-pyrano[2,3-b]pyridin]-4′-yl)amino)-1-hydroxyethyl)-3-buten-1-yl)-3-fluorobenzamide]
258 nM | 475 nM | C=CC[C@H](NC(=O)c1cccnc1OC)[C@H](O)CN[C@H]1CC2(CCC2)Oc2ncc(CC(C)(C)C)cc21 [Example 65, N-((1S)-1-((1R)-2-(((4′S)-6′-(2,2-dimethylpropyl)-3′,4′-dihydrospiro[cyclobutane-1,2′-pyrano[2,3-b]pyridin]-4′-yl)amino)-1-hydroxyethyl)-3-buten-1-yl)-2-(methyloxy)-3-pyridinecarboxamide]
526 nM | 264 nM | C=CC[C@H](NC(=O)c1ccc(F)cc1F)[C@H](O)CN[C@H]1CC2(CCC2)Oc2ncc(CC(C)(C)C)cc21 [Example 70, N-((1S)-1-((1R)-2-(((4′S)-6′-(2,2-dimethylpropyl)-3′,4′-dihydrospiro[cyclobutane-1,2′-pyrano[2,3-b]pyridin]-4′-yl)amino)-1-hydroxyethyl)-3-buten-1-yl)-2,4-difluorobenzamide]

Further lines, the compound ahead of its results:

SMILES | IC50 [1] | IC50 (BACE1)
C=CC[C@H](NC(=O)COC(C)(C)C)[C@H](O)CN[C@H]1CC2(CCC2)Oc2ncc(CC(C)(C)C)cc21 [Example 144, 2-((1,1-dimethylethyl)oxy)-N-((1S)-1-((1R)-2-(((4′S)-6′-(2,2-dimethylpropyl)-3′,4′-dihydrospiro[cyclobutane-1,2′-pyrano[2,3-b]pyridin]-4′-yl)amino)-1-hydroxyethyl)-3-buten-1-yl)acetamide] | 1130 nM | 344 nM
CC#CC[C@H](NC(C)=O)[C@H](O)CN[C@H]1CC2(CCC2)Oc2ncc(CC(C)(C)C)cc21 [Example 86, N-((1S)-1-((1R)-2-(((4′S)-6′-(2,2-dimethylpropyl)-3′,4′-dihydrospiro[cyclobutane-1,2′-pyrano[2,3-b]pyridin]-4′-yl)amino)-1-hydroxyethyl)-3-pentyn-1-yl)acetamide] | 104 nM | 69 nM
C=CCC(NC(=O)C1CCC(=O)O1)C(O)CNC1CC2(CC(O)C2)Oc2ncc(CC(C)(C)C)cc21 [Example 112, (2S)-N-((1S)-1-((1R)-2-(((1s,3S,4′S)-6′-(2,2-dimethylpropyl)-3-hydroxy-3′,4′-dihydrospiro[cyclobutane-1,2′-pyrano[2,3-b]pyridin]-4′-yl)amino)-1-hydroxyethyl)-3-buten-1-yl)-5-oxotetrahydro-2-furancarboxamide] | 28 nM | 2 nM
C#CC[C@H](NC(=O)COC)[C@H](O)CN[C@H]1CC2(CCC2)Oc2ncc(CC(C)(C)C)cc21 [Example 85, N-((1S)-1-((1R)-2-(((4′S)-6′-(2,2-dimethylpropyl)-3′,4′-dihydrospiro[cyclobutane-1,2′-pyrano[2,3-b]pyridin]-4′-yl)amino)-1-hydroxyethyl)-3-butyn-1-yl)-2-(methyloxy)acetamide] | 511 nM | 49 nM
C=CC[C@H](NC(=O)[C@H](C)OC)[C@H](O)CN[C@H]1CC2(CCC2)Oc2ncc(CC(C)(C)C)cc21 [Example 95, (2S)-N-((1S)-1-((1R)-2-(((4′S)-6′-(2,2-dimethylpropyl)-3′,4′-dihydrospiro[cyclobutane-1,2′-pyrano[2,3-b]pyridin]-4′-yl)amino)-1-hydroxyethyl)-3-buten-1-yl)-2-(methyloxy)propanamide] | 637 nM | 145 nM
C=CC[C@H](NC(=O)[C@H]1CC1(F)F)[C@H](O)CN[C@H]1CC2(CCC2)Oc2ncc(CC(C)(C)C)cc21 [Example 139, (1R)-N-((1S)-1-((1R)-2-(((4′S)-6′-(2,2-dimethylpropyl)-3′,4′-dihydrospiro[cyclobutane-1,2′-pyrano[2,3-b]pyridin]-4′-yl)amino)-1-hydroxyethyl)-3-buten-1-yl)-2,2-difluorocyclopropanecarboxamide] | 277 nM | 198 nM
C=CCC(NC(=O)C1CN(C(=O)N2CCCCC2)CCO1)C(O)CNC1CC2(CCC2)Oc2ncc(CC(C)(C)C)cc21 (centres unmarked) [Example 152] | 4 nM | 12 nM
CCC[C@H](NC(C)=O)[C@H](O)CN[C@H]1CC2(CCC2)Oc2ncc(CC(C)(C)C)cc21 [Example 43, N-((1S)-1-((1R)-2-(((4′S)-6′-(2,2-dimethylpropyl)-3′,4′-dihydrospiro[cyclobutane-1,2′-pyrano[2,3-b]pyridin]-4′-yl)amino)-1-hydroxyethyl)butyl)acetamide] | 167 nM | 83 nM
C=CC[C@H](NC(=O)COC)[C@H](O)CNC1CC2(CC(F)(F)C2)Oc2ncc(CC(C)(C)C)cc21 (stereo partly drawn) [Example 41, N-((1S)-1-((1R)-2-((6′-(2,2-dimethylpropyl)-3,3-difluoro-3′,4′-dihydrospiro[cyclobutane-1,2′-pyrano[2,3-b]pyridin]-4′-yl)amino)-1-hydroxyethyl)-3-buten-1-yl)-2-(methyloxy)acetamide] | 127 nM | 42 nM
C=CC[C@H](NC(=O)[C@@H](OC)C(C)C)[C@H](O)CN[C@H]1CC2(CCC2)Oc2ncc(CC(C)(C)C)cc21 [Example 149, (2S)-N-((1S)-1-((1R)-2-(((4′S)-6′-(2,2-dimethylpropyl)-3′,4′-dihydrospiro[cyclobutane-1,2′-pyrano[2,3-b]pyridin]-4′-yl)amino)-1-hydroxyethyl)-3-buten-1-yl)-3-methyl-2-(methyloxy)butanamide] | 1870 nM | 934 nM
C#CC[C@H](NC(=O)c1cc(F)cc(F)c1)[C@H](O)CN[C@H]1CC2(CCC2)Oc2ncc(CC(C)(C)C)cc21 [Example 36, N-((1S)-1-((1R)-2-(((4′S)-6′-(2,2-dimethylpropyl)-3′,4′-dihydrospiro[cyclobutane-1,2′-pyrano[2,3-b]pyridin]-4′-yl)amino)-1-hydroxyethyl)-3-butyn-1-yl)-3,5-difluorobenzamide] | 4160 nM | 228 nM
